Columns and labels:
Assay type in all cases: cell-based
RKO cells = test: CCK8 survival assay, control, USP25 knockdown and SHLD2-depleted RKO cells; conditions: 5-Fu (0, 0.1, 0.5, 1, 3 µM) or cisplatin (0, 0.1, 0.5, 1, 2, 5 µM)
Procedure: For long‐term proliferation, cells were seeded in triplicate in each well of 96‐well plates at a density of 1000 cells per well. After 24 h of culture, the cells were treated with the indicated doses of regents or peptides and incubated at 37 °C for 72 h. Subsequently, the medium was changed to a fresh medium containing cell counting kit‐8 solution (Dojindo, CK04), and the cells were placed in the incubator for an additional 1–2 h. The absorbance was measured at 450 nm using the SpectraMax M5 reader (Molecular Devices).
a) HEK293T cells stably expressing control or USP25 shRNA were untreated and treaded with etopside at the indicated time point. Cells were lysed and lysates was performed with the indicated antibodies. b-c) Representative foci images and quantification of RPA32 (b) and RAD51 (c) were obtained in U2OS cells stably expressing control or USP25 shRNA with or without IR treatment (2Gy). n>80 in each group. d) USP25 was knocked down in ER-AsiSI U2OS cells by shRNA, and cell lysates were analyzed using the indicated antibodies. e) Schematic representation of Taqman qPCR primer design for measurement of DSB% at AsiSI sites located on chromosome1(Chr.1). The primer pairs of DNA resection are across BamHI restriction sites are marked by red arrows. ER-AsiSI U2OS cells stably expressing control and USP25 shRNA were treated with 300 nM 4- hydroxytamoxifen (4-OHT) for 4 h or mock treated and genomic DNA was then extracted and digested with BamHI overnight. The percentages of ssDNA at various distances (364nt, 1754nt and 3564nt) were measured by qPCR. f-h) Control and USP25 knockdown RKO cells transfected short interfering RNAs (siRNA) against SHLD2 were subjected to survival assays for CCK8 assay in response to IR (0, 1,1.5,2,2.5,3Gy), 5-Fu (0, 0.1,0.5,1,3µM) or cisplatin(0, 0.1,0.5,1,2,5µM). Statistical analysis was performed using two-way ANOVA followed by a Turkey’s multiple comparison test (b,c,e,f,g,h) .

RKO and SW620 cells = test: CCK8 survival assay, USP25 knockdown USP25-high colon cancer cells; conditions: RKO: cisplatin (0, 0.5, 1, 3 µM), 5-Fu (0, 0.1, 0.5, 1, 3 µM), SW620: 5-Fu (0, 0.1, 0.5, 1, 3 µM), 72 h
Procedure: For long-term proliferation, cells were seeded in triplicate in each well of 96-well plates at a density of 1000 cells per well. After 24 h of culture, the cells were treated with the indicated doses of regents or peptides and incubated at 37 °C for 72 h. Subsequently, the medium was changed to a fresh medium containing cell counting kit-8 solution (Dojindo, CK04), and the cells were placed in the incubator for an additional 1-2 h. […] a) The mRNA expression levels of TRIM25, HECTD3, NEDD4L and WWP2 in human normal colon tissue samples (n=41) and colorectal adenocarcinoma tissue samples (n=286 COAD patients) from the Ualcan database were analyzed. b) The protein expression levels of USP25 were measured in HEK293T cells that stably expressed TRIM25 shRNA. c) NHEJ repair capacity of control or TRIM25 knockdown cells were subjected using a reporter assay. d-g) Immunoblot of USP25 in the RKO cells stably expressing control and USP25 shRNA. […] Statistical analysis was performed using t-test (a) or one-way ANOVA followed by a Turkey's multiple comparison test (c) or two-way ANOVA followed by a Turkey's multiple comparison test ([…]) .

SW620 cells = test: CCK8 survival assay, SW620 cells overexpressing TRIM25; conditions: SW620 ctrl, 5-Fu (0, 0.1, 0.5, 1, 3 µM), 72 h
Excerpt: (§1) Figure 6 TRIM25 ubiquitinates and inactivates USP25. a) The mRNA expression levels of USP25 in human normal colon tissue samples (n = 41) and colorectal adenocarcinoma tissue samples (n = 286 COAD patients) from the Ualcan database. b) The mRNA expression level of USP25 in human colon cell lines and colon carcinoma cell lines through qPCR. c) The protein expression level of USP25 in human colon cell lines and colon carcinoma cell lines through western blot. d) Tissue microarray with representative IHC images showing USP25 protein expression in COAD tumors and adjacent tissues. […] Cell lysates were subjected to HA resin, and the immunoprecipitants were subsequently blotted using the indicated antibodies. f) The protein expression levels of USP25 were evaluated in HEK293T cells transfected with MYC‐TRIM25 or Flag‐HECTD3. g) The effect of cycloheximide (CHX) treatment on USP25 expression levels was analyzed in HEK293T cells transfected with TRIM25 for an indicated duration of time. h) In vivo ubiquitination assays were performed in control and TRIM25 knockdown cells, transfected with indicated plasmids, and treated with MG132 for 4 h before harvesting. […]
(§2) For long‐term proliferation, cells were seeded in triplicate in each well of 96‐well plates at a density of 1000 cells per well. […] The absorbance was measured at 450 nm using the SpectraMax M5 reader (Molecular Devices).

SW480 cells = test: CCK8 survival assay, TRIM25 knockdown SW480 cells; conditions: ctrl vs USP25-depleted SW480, 5-Fu (0, 0.1, 0.5, 1, 3 µM), 72 h
Excerpt: as §1, §2

USP25-MDC1 interaction = test: Co-IP of USP25-MDC1 interaction after DNA damage; conditions: 5-Fu (20 uM), HEK293T and RKO
Procedure: USP25 was immunoprecipitated and immunoblotted with p‐SQ/TQ. d) USP25 knockdowm U2OS cells rescued with USP25WT or USP25T523A were treated with IR (2 Gy), and co‐localization USP25 with γH2AX was detected by immunofluorescence. n>80 in each group. e) HEK293T cells were left untreated or treated with 5‐Fu (20 uM). MDC1 was immunoprecipitated and immunoblotted with USP25. f) HEK293T cells transfected with USP25 were treated with 5‐Fu (20 uM), and cell lysates were incubated with GST or GST‐MDC1 deletions in vitro. […] The interaction USP25 and MDC1‐BRCT was detected. h) Non‐phosphorylated or phosphorylated Thr523 peptide was conjugated to beads and incubated with purified GST‐MDC1‐BRCT domain in buffer.
Flag was immunoprecipitated and immunoblotted with indicated antibodies. c-d) RKO cells were left untreated or treated with 5-Fu (20uM)(c) or IR(10Gy)(d). […] The interaction USP25 and MDC1-BRCT was detected.

O=c1[nH]cc(F)c(=O)[nH]1 [5‐Fu, 5‐fluorouracil]
sensitization by USP25 knockdown (RKO cells; Figure S2f-h): sensitized cells to IR, 5‐Fu, and cisplatin treatment | sensitization by USP25 knockdown in SHLD2-depleted cells (RKO cells; SHLD2 siRNA): didn't further lead cells to sensitize to these treatments | sensitization by USP25 knockdown, USP25-high cell lines (RKO and SW620 cells): sensitized the cells to IR, cisplatin, and 5‐Fu treatment | sensitization by TRIM25 overexpression (SW620 cells): sensitize to 5‐Fu treatment in ctrl SW620 cells | resistance by TRIM25 knockdown (SW480 cells): resistant to 5‐Fu treatment in ctrl cells but not USP25‐depleted SW480 cells | USP25-MDC1 interaction after treatment (USP25-MDC1 interaction): increased following 5‐Fu or IR treatment
